Key:
[1] = biological target: Inhibitor of nuclear factor kappa-B kinase subunit alpha (Homo sapiens) (UniProt O15111); assay: Inhibition of human CHUK at 1 uM using KKKKERLLDDRHDSGLDSMKDEE as substrate in presence of [gamma33P]-ATP by HotSpot assay relative to control
[2] = biological target: CDK9/Cyclin K (Homo sapiens) (UniProt P50750+O75909); assay: Inhibition of human CDK9/CyclinK at 1 uM using KTFCGTPEYLAPEVRREPRILSEEEQEMFRDFDYIADWC as substrate in presence of [gamma33P]-ATP by HotSpot assay relative to control; assay type: protein-complex assay
[3] = biological target: Dual specificity protein kinase CLK2 (Homo sapiens, UniProt P49760); assay: Inhibition of human CLK2 using MBP as substrate in presence of [gamma33P]-ATP by HotSpot assay
Dual specificity protein kinase CLK2, sequence (P49760 whole entry): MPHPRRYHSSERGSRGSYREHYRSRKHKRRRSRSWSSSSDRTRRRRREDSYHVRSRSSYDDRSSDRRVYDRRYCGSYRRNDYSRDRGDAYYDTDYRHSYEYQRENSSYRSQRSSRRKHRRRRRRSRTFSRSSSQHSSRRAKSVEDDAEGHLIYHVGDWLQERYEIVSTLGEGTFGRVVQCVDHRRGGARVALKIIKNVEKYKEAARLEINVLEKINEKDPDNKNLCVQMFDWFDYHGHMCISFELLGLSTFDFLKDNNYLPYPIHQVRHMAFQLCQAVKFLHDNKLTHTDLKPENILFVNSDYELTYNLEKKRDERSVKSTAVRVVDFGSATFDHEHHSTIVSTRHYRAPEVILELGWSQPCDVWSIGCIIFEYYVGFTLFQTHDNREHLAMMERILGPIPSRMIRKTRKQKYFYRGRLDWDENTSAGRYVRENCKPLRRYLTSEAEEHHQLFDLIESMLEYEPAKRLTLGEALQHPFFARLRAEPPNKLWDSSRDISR

Ephrin type-A receptor 1 = Ephrin type-A receptor 1 (Homo sapiens, UniProt P21709); assay: Inhibition of human EPHA1 using poly (Glu, Tyr)4:1 as substrate in presence of [gamma33P]-ATP by HotSpot assay
Ephrin type-A receptor 1, sequence (P21709 whole entry): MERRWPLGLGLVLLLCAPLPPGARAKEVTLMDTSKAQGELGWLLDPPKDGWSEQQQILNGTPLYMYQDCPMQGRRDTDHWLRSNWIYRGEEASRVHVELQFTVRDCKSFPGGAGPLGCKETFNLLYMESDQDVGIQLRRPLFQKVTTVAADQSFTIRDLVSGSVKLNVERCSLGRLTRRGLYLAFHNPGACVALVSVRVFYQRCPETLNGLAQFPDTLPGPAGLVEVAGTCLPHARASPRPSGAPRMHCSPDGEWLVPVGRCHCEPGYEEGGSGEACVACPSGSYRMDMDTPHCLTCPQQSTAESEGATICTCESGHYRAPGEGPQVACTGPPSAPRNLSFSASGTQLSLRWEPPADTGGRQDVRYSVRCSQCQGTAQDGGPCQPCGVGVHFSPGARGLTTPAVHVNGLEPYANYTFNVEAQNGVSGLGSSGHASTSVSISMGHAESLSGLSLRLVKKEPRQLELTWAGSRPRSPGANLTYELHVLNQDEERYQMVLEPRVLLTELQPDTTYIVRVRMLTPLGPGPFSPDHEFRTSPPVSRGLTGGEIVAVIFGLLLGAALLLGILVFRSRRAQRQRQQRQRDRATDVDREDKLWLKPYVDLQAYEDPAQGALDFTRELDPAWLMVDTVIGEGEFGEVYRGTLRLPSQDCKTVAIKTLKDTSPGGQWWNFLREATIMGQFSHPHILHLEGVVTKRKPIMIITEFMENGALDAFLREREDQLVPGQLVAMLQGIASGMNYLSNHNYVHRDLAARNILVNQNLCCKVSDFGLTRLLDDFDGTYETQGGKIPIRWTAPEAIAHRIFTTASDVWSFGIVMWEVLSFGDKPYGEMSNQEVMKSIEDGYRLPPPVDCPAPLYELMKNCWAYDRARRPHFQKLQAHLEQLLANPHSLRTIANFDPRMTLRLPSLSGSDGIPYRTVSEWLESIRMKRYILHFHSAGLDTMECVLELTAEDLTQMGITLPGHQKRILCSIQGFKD

[4] = biological target: Cyclin-dependent kinase 5/CDK5 activator 1 (Homo sapiens) (UniProt Q00535+Q15078); assay: Inhibition of human CDK5/p25 at 1 uM using RB protein as substrate in presence of [gamma33P]-ATP by HotSpot assay relative to control; assay type: protein-complex assay
Cyclin-dependent kinase 5/CDK5 activator 1 (Homo sapiens), sequence (Q00535 whole entry): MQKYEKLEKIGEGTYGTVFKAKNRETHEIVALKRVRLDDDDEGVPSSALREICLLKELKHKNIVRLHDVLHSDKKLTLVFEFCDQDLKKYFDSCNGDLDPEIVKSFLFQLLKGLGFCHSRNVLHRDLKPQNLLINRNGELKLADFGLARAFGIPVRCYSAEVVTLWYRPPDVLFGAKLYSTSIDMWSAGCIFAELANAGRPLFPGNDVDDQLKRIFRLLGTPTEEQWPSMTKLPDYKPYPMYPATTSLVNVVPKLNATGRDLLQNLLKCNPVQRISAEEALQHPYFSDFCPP
Cyclin-dependent kinase 5/CDK5 activator 1 (Homo sapiens), sequence (Q15078 99-307 partner limits assumed): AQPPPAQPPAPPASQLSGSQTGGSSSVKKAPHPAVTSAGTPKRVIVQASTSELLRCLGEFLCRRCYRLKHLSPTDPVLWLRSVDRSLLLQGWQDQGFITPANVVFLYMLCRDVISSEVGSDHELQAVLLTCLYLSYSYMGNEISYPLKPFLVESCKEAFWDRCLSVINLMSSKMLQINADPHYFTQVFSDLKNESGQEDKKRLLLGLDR

[5] = biological target: Death-associated protein kinase 3 (Homo sapiens) (UniProt O43293); assay: Inhibition of human DAPK3 at 1 uM using KKLNRTLSFAEPG as substrate in presence of [gamma33P]-ATP by HotSpot assay relative to control
Death-associated protein kinase 3 (Homo sapiens), sequence (O43293 whole entry, looked up): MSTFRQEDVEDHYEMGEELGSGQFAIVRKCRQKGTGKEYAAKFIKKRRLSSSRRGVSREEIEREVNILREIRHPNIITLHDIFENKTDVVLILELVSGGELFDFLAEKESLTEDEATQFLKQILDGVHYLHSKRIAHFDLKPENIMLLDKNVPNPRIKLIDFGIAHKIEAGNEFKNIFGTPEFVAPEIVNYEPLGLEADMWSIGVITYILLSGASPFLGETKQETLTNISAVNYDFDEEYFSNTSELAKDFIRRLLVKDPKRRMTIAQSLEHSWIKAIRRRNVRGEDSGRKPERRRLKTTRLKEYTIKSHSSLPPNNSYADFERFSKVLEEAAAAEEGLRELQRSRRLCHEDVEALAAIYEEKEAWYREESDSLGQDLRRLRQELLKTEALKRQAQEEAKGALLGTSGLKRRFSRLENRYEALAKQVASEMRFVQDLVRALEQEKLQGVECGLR

[6] = biological target: Mitogen-activated protein kinase 14 (Homo sapiens) (UniProt Q16539); assay: Inhibition of human MAPK14 at 1 uM using MBP as substrate in presence of [gamma33P]-ATP by HotSpot assay relative to control
Mitogen-activated protein kinase 14 (Homo sapiens), sequence (Q16539 whole entry): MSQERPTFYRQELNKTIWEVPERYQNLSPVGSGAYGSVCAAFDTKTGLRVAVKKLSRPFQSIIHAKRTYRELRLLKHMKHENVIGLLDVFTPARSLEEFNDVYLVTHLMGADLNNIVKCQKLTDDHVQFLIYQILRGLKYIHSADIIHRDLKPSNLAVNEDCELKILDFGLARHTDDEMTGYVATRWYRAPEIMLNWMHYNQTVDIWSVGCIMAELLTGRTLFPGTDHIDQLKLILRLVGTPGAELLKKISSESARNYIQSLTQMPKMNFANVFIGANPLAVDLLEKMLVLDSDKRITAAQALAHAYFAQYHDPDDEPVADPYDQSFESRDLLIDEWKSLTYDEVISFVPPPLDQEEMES

[7] = biological target: MAP kinase-activated protein kinase 3 (Homo sapiens) (UniProt Q16644); assay: Inhibition of human MAPKAPK3 at 1 uM using KKLNRTLSVA as substrate in presence of [gamma33P]-ATP by HotSpot assay relative to control
MAP kinase-activated protein kinase 3 (Homo sapiens), sequence (Q16644 whole entry, looked up): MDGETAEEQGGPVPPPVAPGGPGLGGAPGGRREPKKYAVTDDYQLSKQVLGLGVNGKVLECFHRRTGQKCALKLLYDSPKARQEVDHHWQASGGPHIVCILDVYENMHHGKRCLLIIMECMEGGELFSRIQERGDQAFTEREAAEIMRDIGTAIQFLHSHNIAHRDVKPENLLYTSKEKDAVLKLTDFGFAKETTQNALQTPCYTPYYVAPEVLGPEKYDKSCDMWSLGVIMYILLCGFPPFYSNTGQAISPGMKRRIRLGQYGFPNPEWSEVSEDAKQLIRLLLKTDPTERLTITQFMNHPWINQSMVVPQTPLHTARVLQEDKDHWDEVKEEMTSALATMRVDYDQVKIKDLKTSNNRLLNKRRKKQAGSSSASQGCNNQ

[8] = biological target: Serine/threonine-protein kinase Nek3 (Homo sapiens) (UniProt P51956); assay: Inhibition of human NEK3 at 1 uM using MBP as substrate in presence of [gamma33P]-ATP by HotSpot assay relative to control
Serine/threonine-protein kinase Nek3 (Homo sapiens), sequence (P51956 whole entry): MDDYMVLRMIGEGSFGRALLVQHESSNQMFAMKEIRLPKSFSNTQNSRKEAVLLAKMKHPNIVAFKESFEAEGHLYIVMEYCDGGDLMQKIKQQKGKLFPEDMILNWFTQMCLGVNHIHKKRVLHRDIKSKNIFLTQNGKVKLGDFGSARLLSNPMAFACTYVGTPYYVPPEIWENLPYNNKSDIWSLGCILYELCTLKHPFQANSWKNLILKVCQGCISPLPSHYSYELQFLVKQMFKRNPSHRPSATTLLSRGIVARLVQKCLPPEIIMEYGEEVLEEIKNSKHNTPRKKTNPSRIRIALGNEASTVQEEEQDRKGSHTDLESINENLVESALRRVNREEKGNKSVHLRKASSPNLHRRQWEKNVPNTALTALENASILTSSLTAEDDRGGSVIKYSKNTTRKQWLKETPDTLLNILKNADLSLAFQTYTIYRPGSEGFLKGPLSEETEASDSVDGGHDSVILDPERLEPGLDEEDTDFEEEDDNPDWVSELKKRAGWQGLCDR

[9] = biological target: cGMP-dependent protein kinase 1 (Homo sapiens) (UniProt Q13976); assay: Inhibition of human PKG1b at 1 uM using LRRASLG as substrate in presence of [gamma33P]-ATP by HotSpot assay relative to control
[10] = biological target: Serine/threonine-protein kinase Sgk3 (Homo sapiens) (UniProt Q96BR1); assay: Inhibition of human SGK3 at 1 uM using GRPRTSSFAEG as substrate in presence of [gamma33P]-ATP by HotSpot assay relative to control
Serine/threonine-protein kinase Sgk3 (Homo sapiens), sequence (Q96BR1 whole entry): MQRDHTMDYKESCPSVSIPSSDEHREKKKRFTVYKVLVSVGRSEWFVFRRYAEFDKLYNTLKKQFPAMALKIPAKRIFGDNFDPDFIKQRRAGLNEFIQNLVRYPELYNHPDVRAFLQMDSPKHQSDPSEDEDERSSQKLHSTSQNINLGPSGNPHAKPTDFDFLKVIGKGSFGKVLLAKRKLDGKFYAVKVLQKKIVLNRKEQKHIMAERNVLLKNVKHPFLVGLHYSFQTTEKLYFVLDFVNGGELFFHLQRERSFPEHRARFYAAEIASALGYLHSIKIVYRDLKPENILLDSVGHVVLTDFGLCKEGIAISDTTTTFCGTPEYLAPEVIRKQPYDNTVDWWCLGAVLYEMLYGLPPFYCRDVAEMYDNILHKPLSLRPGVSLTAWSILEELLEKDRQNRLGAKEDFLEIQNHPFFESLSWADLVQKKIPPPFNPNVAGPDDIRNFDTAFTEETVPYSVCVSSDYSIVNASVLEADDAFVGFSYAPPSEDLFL

[11] = biological target: Tyrosine-protein kinase Tec (Homo sapiens) (UniProt P42680); assay: Inhibition of human TEC at 1 uM using poly (Glu, Tyr)4:1 as substrate in presence of [gamma33P]-ATP by HotSpot assay relative to control
Tyrosine-protein kinase Tec (Homo sapiens), sequence (P42680 whole entry): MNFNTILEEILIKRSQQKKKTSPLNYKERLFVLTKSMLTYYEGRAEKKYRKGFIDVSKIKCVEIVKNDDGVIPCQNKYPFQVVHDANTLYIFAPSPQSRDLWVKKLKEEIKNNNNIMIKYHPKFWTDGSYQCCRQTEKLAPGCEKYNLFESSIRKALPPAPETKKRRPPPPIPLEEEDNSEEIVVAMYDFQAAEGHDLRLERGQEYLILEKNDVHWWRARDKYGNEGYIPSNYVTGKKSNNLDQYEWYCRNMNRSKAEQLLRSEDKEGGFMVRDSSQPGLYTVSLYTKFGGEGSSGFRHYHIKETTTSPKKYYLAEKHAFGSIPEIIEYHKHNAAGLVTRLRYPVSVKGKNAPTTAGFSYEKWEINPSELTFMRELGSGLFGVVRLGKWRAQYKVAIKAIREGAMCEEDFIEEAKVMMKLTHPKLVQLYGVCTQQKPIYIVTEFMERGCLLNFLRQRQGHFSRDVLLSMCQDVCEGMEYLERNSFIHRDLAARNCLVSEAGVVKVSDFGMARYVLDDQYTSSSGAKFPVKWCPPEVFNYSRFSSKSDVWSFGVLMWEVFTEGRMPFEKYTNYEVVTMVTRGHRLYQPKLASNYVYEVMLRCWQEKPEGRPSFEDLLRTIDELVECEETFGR

[12] = biological target: Serine/threonine-protein kinase WNK2 (Homo sapiens) (UniProt Q9Y3S1); assay: Inhibition of human WNK2 at 1 uM using MBP as substrate in presence of [gamma33P]-ATP by HotSpot assay relative to control

COc1cc(N2CCC(N3CCN(C)CC3)CC2)ccc1Nc1ncc(Cl)c(Nc2ccccc2P(C)(C)=O)n1 [BRIGATINIB]
inhibition [1]: < 90% | inhibition [2]: < 90% | IC50 [3]: 240 nM | IC50 (Ephrin type-A receptor 1): > 1000 nM | inhibition [4]: < 90% | inhibition [5]: < 90% | inhibition [6]: < 90% | inhibition [7]: < 90% | inhibition [8]: < 90% | inhibition [9]: < 90% | inhibition [10]: < 90% | inhibition [11]: < 90% | inhibition [12]: < 90%
